Like-named read-outs stand apart in the source and are kept apart here.
Biological target: T1, Cbl-B (Homo sapiens, UniProt Q13191)
T1 construct: MSD-Based Assay for Degradation of Cbl-B in THP-1 Cells; endogenous in cells; host or cells: THP-1 (title) / Jurkat (protocol text)
Assay: MSD-based assay for degradation of Cbl-B in THP-1 cells
Assay type: cell-based
Summary of the method: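 Reported Dmax bins are A >70%, B 50–70%, C 30–50% and D <30%, from an electrochemiluminescence (MSD) sandwich assay of Cbl-B in cell lysates. THP-1 cells were exposed to compounds for 24 hours before lysis.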

[1] = Cbl-B degradation, Jurkat cells seeded (heading: THP-1 cells), 24 hours incubation, MSD readout
[2] = Cbl-B degradation, Jurkat cells seeded (heading: THP-1 cells), 24 hours incubation, MSD readout, read-out: Dmax

T1 sequence (Q13191 whole entry): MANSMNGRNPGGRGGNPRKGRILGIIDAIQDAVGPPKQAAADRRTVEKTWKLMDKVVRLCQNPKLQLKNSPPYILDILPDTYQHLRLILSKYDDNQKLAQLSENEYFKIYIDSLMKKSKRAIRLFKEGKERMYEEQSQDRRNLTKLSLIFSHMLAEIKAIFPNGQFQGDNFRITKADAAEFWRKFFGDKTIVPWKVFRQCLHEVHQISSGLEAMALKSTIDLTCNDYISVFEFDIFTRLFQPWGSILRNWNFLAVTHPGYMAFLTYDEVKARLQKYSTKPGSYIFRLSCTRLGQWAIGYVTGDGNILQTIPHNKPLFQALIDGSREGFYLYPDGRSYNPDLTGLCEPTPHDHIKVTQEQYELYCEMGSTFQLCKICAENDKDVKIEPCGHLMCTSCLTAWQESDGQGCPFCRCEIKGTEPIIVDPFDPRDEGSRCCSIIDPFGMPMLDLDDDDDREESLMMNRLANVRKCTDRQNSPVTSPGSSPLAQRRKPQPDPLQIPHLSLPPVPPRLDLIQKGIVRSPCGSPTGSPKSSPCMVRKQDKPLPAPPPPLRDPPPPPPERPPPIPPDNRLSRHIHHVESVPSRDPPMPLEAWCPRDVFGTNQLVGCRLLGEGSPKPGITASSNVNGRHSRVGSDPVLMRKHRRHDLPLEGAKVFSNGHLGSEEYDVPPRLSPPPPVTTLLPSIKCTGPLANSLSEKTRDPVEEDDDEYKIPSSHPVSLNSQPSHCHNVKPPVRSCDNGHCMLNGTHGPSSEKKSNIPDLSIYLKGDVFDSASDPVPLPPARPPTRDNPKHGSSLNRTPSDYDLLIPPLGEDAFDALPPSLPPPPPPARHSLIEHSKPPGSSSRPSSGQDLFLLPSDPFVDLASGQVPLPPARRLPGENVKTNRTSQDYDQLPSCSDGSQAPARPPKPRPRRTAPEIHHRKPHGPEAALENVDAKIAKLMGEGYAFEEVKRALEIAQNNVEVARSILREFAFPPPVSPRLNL

SMILES | DC50 [1] [nM] | Dmax [2] [%] | Dmax (THP-1) [%]
Cn1cnnc1[C@@H](c1cccc(-n2cc3c(C(F)(F)F)cc(CN4CCC(CN5CCC(CN6CCN(c7ccc8c(c7)CN(C7CCC(=O)NC7=O)C8=O)CC6)CC5)CC4)cn3c2=O)c1)C1CCC1 (stereo partly drawn) [Compound 38] | 1000 to 10000 | 50 to 70 | 
Cn1cnnc1CC1(c2cccc(-n3cc4c(C(F)(F)F)cc(CN5CCC(N6CCN(c7ccc8c(c7)CN(C7CCC(=O)NC7=O)C8=O)CC6)CC5)cn4c3=O)c2)COC1 (stereo not drawn) [Compound 39] | > 10000 |  | < 30
Cn1cnnc1CC1(c2cccc(-n3cc4c(C(F)(F)F)cc(CN5CCC(CN6CCC(CN7CCN(c8ccc9c(c8)CN(C8CCC(=O)NC8=O)C9=O)CC7)CC6)CC5)cn4c3=O)c2)COC1 (stereo not drawn) [Compound 42] | > 10000 |  | < 30
Cn1cnnc1CC1(c2cccc(-n3cc4c(C(F)(F)F)cc(CN5CCC(C(=O)N6CCC(CN7CCN(c8ccc9c(c8)CN(C8CCC(=O)NC8=O)C9=O)CC7)CC6)CC5)cn4c3=O)c2)COC1 (stereo not drawn) [Compound 43] | > 10000 |  | < 30
Cn1cnnc1[C@@H](c1cccc(-n2cc3c(C(F)(F)F)cc(CN4CCC(C(=O)N5CCC(CN6CCN(c7ccc8c(c7)CN(C7CCC(=O)NC7=O)C8=O)CC6)CC5)CC4)cn3c2=O)c1)C1CCC1 (stereo partly drawn) [Compound 44] | > 10000 | 30 to 50 | 
Cn1cnnc1CC1(c2cccc(-n3cc4c(C(F)(F)F)cc(CN5CC[C@@H](OCCOCc6ccc(COCCNc7cccc8c7C(=O)N(C7CCC(=O)NC7=O)C8=O)cc6)C5)cn4c3=O)c2)COC1 (stereo partly drawn) [Compound 45] | 300 to 1000 | 50 to 70 | 
Cn1cnnc1CC1(c2cccc(-n3cc4c(C(F)(F)F)cc(CN5CC[C@H](OCCOCc6ccc(COCCNc7cccc8c7C(=O)N(C7CCC(=O)NC7=O)C8=O)cc6)C5)cn4c3=O)c2)COC1 (stereo partly drawn) [Compound 46] | > 10000 | 30 to 50 | 
Cn1cnnc1[C@@H](c1cccc(-n2cc3c(C(F)(F)F)cc(CN4CCC[C@H](OCCN5CCC(CN6CCN(c7ccc8c(c7)CN([C@@H]7CCC(=O)NC7=O)C8=O)CC6)CC5)C4)cn3c2=O)c1)C1CCC1 [Compound 55] | 1000 to 10000 | 30 to 50 | 
Cn1cnnc1[C@@H](c1cccc(-n2cc3c(C(F)(F)F)cc(CN4CCC(OCCN5CCC(CN6CCN(c7ccc8c(c7)CN([C@@H]7CCC(=O)NC7=O)C8=O)CC6)CC5)CC4)cn3c2=O)c1)C1COC1 [Compound 57] | 1000 to 10000 | 50 to 70 | 
Cn1cnnc1[C@@H](c1cccc(-n2cc3c(C(F)(F)F)cc(CN4CC[C@@H](OCCOCc5ccc(COCCNc6cccc7c6C(=O)N(C6CCC(=O)NC6=O)C7=O)cc5)C4)cn3c2=O)c1)C1CCC1 (stereo partly drawn) [Compound 59] | 300 to 1000 | 30 to 50 | 
Cn1cnnc1[C@@H](c1cccc(-n2cc3c(C(F)(F)F)cc(CN4CC[C@H](OCCOCc5ccc(COCCNc6cccc7c6C(=O)N(C6CCC(=O)NC6=O)C7=O)cc5)C4)cn3c2=O)c1)C1CCC1 (stereo partly drawn) [Compound 60] | 300 to 1000 | 30 to 50 | 
Cn1cnnc1[C@@H](c1cccc(N2Cc3c(cc(CN4CCC(OCCN5CCC(CN6CCN(c7ccc8c(c7)CN([C@@H]7CCC(=O)NC7=O)C8=O)CC6)CC5)CC4)cc3C(F)(F)F)C2=O)c1)C1CCC1 [Compound 65] | 300 to 1000 | 50 to 70 | 
Cn1cnnc1[C@@H](c1cccc(N2Cc3c(cc(CN4CCC(OCCN5CCC(CN6CCN(c7ccc8c(c7)CN([C@H]7CCC(=O)NC7=O)C8=O)CC6)CC5)CC4)cc3C(F)(F)F)C2=O)c1)C1CCC1 [Compound 66] | 30 to 300 |  | 50 to 70
Cn1cnnc1CC1(c2cccc(N3Cc4c(cc(CN5CCC(OCCN6CCC(CN7CCN(c8ccc9c(c8)CN([C@H]8CCC(=O)NC8=O)C9=O)CC7)CC6)CC5)cc4C(F)(F)F)C3=O)c2)COC1 [Compound 76] | 30 to 300 | 50 to 70 | 
Cn1cnnc1[C@@H](c1cccc(-n2cc3c(C(F)(F)F)cc(CN4CCC[C@H](OCc5ccc(CN6CCN(c7ccc8c(c7)CN([C@H]7CCC(=O)NC7=O)C8=O)CC6)cc5)C4)cn3c2=O)c1)C1CCC1 [Compound 82] | < 30 |  | 
Cn1cnnc1[C@@H](c1cccc(-n2cc3c(C(F)(F)F)cc(CN4CCC[C@@H](OCc5ccc(CN6CCN(c7ccc8c(c7)CN(C7CCC(=O)NC7=O)C8=O)CC6)cc5)C4)cn3c2=O)c1)C1CCC1 (stereo partly drawn) [Compound 95] | 30 to 300 |  | 
Cn1cnnc1CC1(c2cccc(-n3cc4c(C(F)(F)F)cc(CN5CCC[C@@H](OCc6ccc(CN7CCN(c8ccc9c(c8)CN(C8CCC(=O)NC8=O)C9=O)CC7)cc6)C5)cn4c3=O)c2)COC1 (stereo partly drawn) [Compound 96] | 30 to 300 | 30 to 50 | 
Cn1cnnc1CC1(c2cccc(-n3cc4c(C(F)(F)F)cc(-c5nccn5CCOCCN5CCC(CN6CCN(c7ccc8c(c7)CN([C@@H]7CCC(=O)NC7=O)C8=O)CC6)CC5)cn4c3=O)c2)COC1 [Compound 99] | > 10000 | < 30 | 
Cn1cnnc1[C@@H](c1cccc(-n2cc3c(C(F)(F)F)cc(CN4CCC(COCc5ccc(CN6CCN(c7ccc8c(c7)CN([C@@H]7CCC(=O)NC7=O)C8=O)CC6)cc5)CC4)cn3c2=O)c1)C1CCC1 [Compound 101] | 30 to 300 |  | 50 to 70
CN(CCO[C@@H]1CCCN(Cc2cc(C(F)(F)F)c3cn(-c4cccc([C@H](c5nncn5C)C5CCC5)c4)c(=O)n3c2)C1)C(=O)c1ccc(N2CCN(c3ccc4c(c3)CN([C@H]3CCC(=O)NC3=O)C4=O)CC2)cc1 [Compound 104] | 30 to 300 |  | 
CN(CCO[C@H]1CCCN(Cc2cc(C(F)(F)F)c3cn(-c4cccc([C@H](c5nncn5C)C5CCC5)c4)c(=O)n3c2)C1)C(=O)c1ccc(N2CCN(c3ccc4c(c3)CN([C@H]3CCC(=O)NC3=O)C4=O)CC2)cc1 [Compound 106] | 300 to 1000 |  | 
Cn1cnnc1CC1(c2cccc(-n3cc4c(C(F)(F)F)cc(CN5CC(OCCN6CCC(CN7CCN(c8ccc9c(c8)CN(C8CCC(=O)NC8=O)C9=O)CC7)CC6)C5)cn4c3=O)c2)COC1 (stereo not drawn) [Compound 113] | > 10000 |  | < 30
Cn1cnnc1[C@@H](c1cccc(-n2cc3c(C(F)(F)F)cc(CN4CC(OCCN5CCC(CN6CCN(c7ccc8c(c7)CN(C7CCC(=O)NC7=O)C8=O)CC6)CC5)C4)cn3c2=O)c1)C1CCC1 (stereo partly drawn) [Compound 114] | > 10000 | < 30 | 
Cn1cnnc1[C@@H](c1cccc(-n2cc3c(C(F)(F)F)cc(CN4CCN(C(=O)CN5CCC(CN6CCN(c7ccc8c(c7)CN([C@@H]7CCC(=O)NC7=O)C8=O)CC6)CC5)CC4)cn3c2=O)c1)C1CCC1 [Compound 129] | > 10000 | < 30 | 
CN(C(=O)c1ccc(N2CCN(c3ccc4c(c3)CN([C@@H]3CCC(=O)NC3=O)C4=O)CC2)cc1)C1CCN(Cc2cc(C(F)(F)F)c3cn(-c4cccc([C@H](c5nncn5C)C5CCC5)c4)c(=O)n3c2)CC1 [Compound 137] | 30 to 300 | 30 to 50 | 

Continued, in another order:

DC50 [1] [nM] | Dmax [2] [%] | SMILES | Dmax (THP-1) [%]
30 to 300 | > 70 | Cn1cnnc1[C@@H](c1cccc(-n2cc3c(C(F)(F)F)cc(CN4CCC[C@H](OCCN5CCC(CN6CCN(c7ccc8c(c7)CN([C@H]7CCC(=O)NC7=O)C8=O)CC6)CC5)C4)cn3c2=O)c1)C1CCC1 [Compound 56] | 
30 to 300 | > 70 | Cn1cnnc1[C@@H](c1cccc(-n2cc3c(C(F)(F)F)cc(CN4CCC(OCCN5CCC(CN6CCN(c7ccc8c(c7)CN([C@H]7CCC(=O)NC7=O)C8=O)CC6)CC5)CC4)cn3c2=O)c1)C1COC1 [Compound 58] | 
30 to 300 | > 70 | Cn1cnnc1CC1(c2cccc(-n3cc4c(C(F)(F)F)cc(CN5CCN(CCN6CCC(CN7CCN(c8ccc9c(c8)CN([C@H]8CCC(=O)NC8=O)C9=O)CC7)CC6)CC5)cn4c3=O)c2)COC1 [Compound 62] | 
300 to 1000 | 30 to 50 | Cn1cnnc1[C@@H](c1cccc(-n2cc3c(C(F)(F)F)cc(CN4CCN(CCN5CCC(CN6CCN(c7ccc8c(c7)CN([C@@H]7CCC(=O)NC7=O)C8=O)CC6)CC5)CC4)cn3c2=O)c1)C1CCC1 [Compound 63] | 
300 to 1000 | 30 to 50 | CO[C@H]1C[C@](c2cccc(-n3cc4c(C(F)(F)F)cc(CN5CCC(OCCN6CCC(CN7CCN(c8ccc9c(c8)CN([C@@H]8CCC(=O)NC8=O)C9=O)CC7)CC6)CC5)cn4c3=O)c2)(c2nncn2C)C1 [Compound 69] | 
30 to 300 | 50 to 70 | CO[C@H]1C[C@](c2cccc(-n3cc4c(C(F)(F)F)cc(CN5CCC(OCCN6CCC(CN7CCN(c8ccc9c(c8)CN([C@H]8CCC(=O)NC8=O)C9=O)CC7)CC6)CC5)cn4c3=O)c2)(c2nncn2C)C1 [Compound 70] | 
1000 to 10000 | 30 to 50 | CO[C@H]1C[C@@](c2cccc(-n3cc4c(C(F)(F)F)cc(CN5CCC(OCCN6CCC(CN7CCN(c8ccc9c(c8)CN([C@@H]8CCC(=O)NC8=O)C9=O)CC7)CC6)CC5)cn4c3=O)c2)(c2nncn2C)C1 [Compound 73] | 
1000 to 10000 | 50 to 70 | CO[C@H]1C[C@@](c2cccc(-n3cc4c(C(F)(F)F)cc(CN5CCC(OCCN6CCC(CN7CCN(c8ccc9c(c8)CN([C@H]8CCC(=O)NC8=O)C9=O)CC7)CC6)CC5)cn4c3=O)c2)(c2nncn2C)C1 [Compound 74] | 
1000 to 10000 | 30 to 50 | Cn1cnnc1[C@@H](c1cccc(-n2cc3c(C(F)(F)F)cc(-c4nccn4CCOCCN4CCC(CN5CCN(c6ccc7c(c6)CN([C@@H]6CCC(=O)NC6=O)C7=O)CC5)CC4)cn3c2=O)c1)C1CCC1 [Compound 97] | 
30 to 300 | > 70 | Cn1cnnc1[C@@H](c1cccc(-n2cc3c(C(F)(F)F)cc(CN4CCC(COCc5ccc(CN6CCN(c7ccc8c(c7)CN([C@H]7CCC(=O)NC7=O)C8=O)CC6)cc5)CC4)cn3c2=O)c1)C1CCC1 [Compound 102] | 
< 30 | 50 to 70 | Cn1cnnc1[C@@H](c1cccc(-n2cc3c(C(F)(F)F)cc(CN4CCC(OCCc5ccc(CN6CCN(c7ccc8c(c7)CN([C@H]7CCC(=O)NC7=O)C8=O)CC6)cc5)CC4)cn3c2=O)c1)C1CCC1 [Compound 116] | 
30 to 300 |  | Cn1cnnc1[C@@H](c1cccc(-n2cc3c(C(F)(F)F)cc(CN4CCC(N5CCC(CN6CCN(c7ccc8c(c7)CN([C@H]7CCC(=O)NC7=O)C8=O)CC6)CC5)CC4)cn3c2=O)c1)C1CCC1 [Compound 136] | 
